# Measured values: PMC8147781, “Discovery of Pyrrolidine-2,3-diones as Novel Inhibitors of P. aeruginosa PBP3” (Antibiotics, 2021)
# Experiments:
# [1] = test system: K. pneumoniae clinical isolate; test: MIC broth microdilution, K. pneumoniae; type: cell-based; conditions: control compounds
# Protocol: (§1) MIC determination was performed via standard broth microdilution according to the Clinical & Laboratory Standards institute guidelines. Overnight colonies grown on BD-Columbia agar with 5% Sheep Blood (Becton Dickinson, Franklin Lakes, NJ, USA), were diluted in Mueller Hinton Broth 2 cation adjusted (MH+) medium (Thermo Fisher Scientific) to a concentration of 5 × 10^5 CFU/mL. Serial dilutions (1:2) of test compounds were incubated at 37 °C with 5 × 10^4 bacteria in a final volume of 100 μL. Sterile and growth controls in the presence of 1% DMSO and PMBN if the case, and the positive controls, aztreonam (AZT) and tigecycline (TIG) were included in the experiments (Table S4). The MICs were determined visually after 18 h at 37 °C and confirmed by the addition of 10% PrestoBlue (ThermoFisher Scientific) reagent according to the manufacture’s protocol. The fluorescence signal of PrestoBlue reagent was measured at Ex/Em: 550/595 nm after 30 min incubation at 37 °C using at a ClarioStar microplate reader (BMG Labtech). PrestoBlue reduction occurs in the presence of living cells and consequently turns red in colour and is highly fluorescent.
# S. aureus 133 = test: MIC broth microdilution, S. aureus; type: cell-based; conditions: Staphylococcus aureus, 133, 18 h; PMBN 0 µg/mL, control compounds
# Protocol: as §1
# [2] = test system: P. aeruginosa PAO1 (wild-type strain); test: MIC broth microdilution, P. aeruginosa PAO1; type: cell-based, Pseudomonas aeruginosa; conditions: for MIC: Pseudomonas aeruginosa, PAO1, PMBN 0 µg/mL (absence of PMBN); for MIC (µM) against P. aeruginosa PAO1: wild-type strain, with 4 µg/mL PMBN
# From the text: (§2) The results presented above implied that seven pyrrolidine-2,3-dione derivatives inhibited the activity of ^PaPBP3 in vitro. Consequently, we were very interested in investigating the potential of these compounds to affect the growth of P. aeruginosa. Two P. aeruginosa bacterial strains (the wild-type PAO1 and the isogenic ΔmexB ΔmexX ΔmexCD-oprJ efflux pump mutant) were used to determine the MIC and the potential role of the main P. aeruginosa efflux systems in compound uptake. To increase the antibacterial sensitivity of the tested P. aeruginosa isolates to the potential inhibitors, we performed MIC experiments in the presence and absence of a sub-MIC concentration (4 µg/mL) of the outer membrane permeabilising polymyxin B nonapeptide (PMBN). […] Thus, we concluded that the physicochemical properties of the pyrrolidine-2,3-dione compounds were perhaps not yet favourable enough to cross the P. aeruginosa cell envelope without a permeabiliser because of their high hydrophobicity.
# (§3) The wild-type P.aeruginosa PAO1 and the isogenic P. aeruginosa K2896 ΔmexBΔmexXYΔmexCD-oprJ isolates were used to determine the MIC in the presence and absence of PMBN [48].
# as §1
# S. pneumoniae = test: MIC broth microdilution, S. pneumoniae; type: cell-based; conditions: Streptococcus pneumoniae, 18 h; PMBN 0 µg/mL, control compounds; read-out: MIC (µM) S. pneumoniae
# Protocol: as §1
# A. baumannii ATCC15308 = test: MIC broth microdilution, A. baumannii; type: cell-based; conditions: Acinetobacter baumannii, control compounds
# Protocol: as §1
# B. subtilis 168 = test: MIC broth microdilution, B. subtilis; type: cell-based; conditions: Bacillus subtilis, 168, 18 h; PMBN 0 µg/mL, control compounds
# Protocol: as §1
# [3] = test system: P. aeruginosa K2896 ΔmexBΔmexXYΔmexCD-oprJ; test: MIC broth microdilution, P. aeruginosa K2896 efflux mutant; type: cell-based, Pseudomonas aeruginosa; conditions: for MIC: Pseudomonas aeruginosa, read-out: MIC (µM) P. aeruginosa K2896; for MIC (µM) against P. aeruginosa K28926: ΔmexB, ΔmexX, ΔmexCD-oprJ, with 4 µg/mL PMBN
# From the text: as §2, §3, §1
# E. coli Neumann = test: MIC broth microdilution, E. coli; type: cell-based; conditions: Escherichia coli; PMBN 0 µg/mL, control compounds; read-out: MIC (µM) E. coli Newmann
# Protocol: as §1
SMILES,MIC ([1]; PMBN 0 µg/mL) [µM],MIC ([1]; PMBN 50 µg/mL) [µM],MIC (S. aureus 133) [µM],MIC [2] [µM],MIC (µM) against P. aeruginosa PAO1 [2] [µM],MIC (S. pneumoniae) [µM],"MIC (A. baumannii ATCC15308; ATCC15308, PMBN 0 µg/mL) [µM]","MIC (A. baumannii ATCC15308; ATCC15308, PMBN 50 µg/mL) [µM]",MIC (B. subtilis 168) [µM],MIC [3] [µM],MIC (µM) against P. aeruginosa K28926 [3] [µM],MIC (E. coli Neumann) [µM]
"CN(C)c1cc(NC(=O)CNC(C)(C)C)c(O)c2c1C[C@H]1C[C@H]3[C@H](N(C)C)C(O)=C(C(N)=O)C(=O)[C@@]3(O)C(O)=C1C2=O [Tygecyclin, tigecycline, reference compound]",0.9,0.4,0.2,> 4,0.4,0.1,0.9,0.4,0.2,0.8,0.2,0.4
"C[C@H]1[C@H](NC(=O)/C(=N\OC(C)(C)C(=O)O)c2csc(N)n2)C(=O)N1S(=O)(=O)O [Aztreonam, aztreonam, reference compound]",0.143,0.071,> 1.2,> 1.2,0.58,> 1.2,> 1.2,0.58,> 1.2,0.575,0.29,0.287
